These results are taken from US8759534B2, “Trimethine cyanine and its use” (Orgchem Technologies, Inc., priority 2011, dated 2014).

A short description of this data set: Solubility in TFP. The format is physicochemical. The following applies: solvent TFP (2,2,3,3-tetrafluoro-1-propanol).
Regarding `CN1/C(=C/C=C/C2=[N+](C)c3ccc4ccccc4c3C2(C)Cc2ccc(Oc3ccc(CC4(C)C(/C=C/C=C5/N(C)c6ccc7ccccc7c6C5(C)Cc5ccccc5)=[N+](C)c5ccc6ccccc6c54)cc3)cc2)C(C)(Cc2ccccc2)c2c1ccc1ccccc21` (centres unmarked) [Compound No. 1], the “Solubility (in TFP)” value was 4.8%.
Take `CCN1/C(=C/C=C/C2=[N+](C)c3ccc4ccccc4c3C2(C)Cc2ccc(Cc3ccc(CC4(C)C(/C=C/C=C5/N(CC)c6ccc7ccccc7c6C5(C)Cc5ccccc5)=[N+](C)c5ccc6ccccc6c54)cc3)cc2)C(C)(Cc2ccccc2)c2c1ccc1ccccc21` (centres unmarked) [Compound No. 13]: the “Solubility (in TFP)” value is given as 3.6%.
`CN1/C(=C/C=C/C2=[N+](C)c3ccc4ccccc4c3C2(C)CC=CCC2(C)C(/C=C/C=C3/N(C)c4ccc5ccccc5c4C3(C)Cc3ccccc3)=[N+](C)c3ccc4ccccc4c32)C(C)(Cc2ccccc2)c2c1ccc1ccccc21` (centres unmarked) [Compound No. 26]: the “Solubility (in TFP)” value is 5.3%.
Turning to `CN1/C(=C/C=C/C2=[N+](Cc3ccccc3)c3ccc4ccccc4c3C2(C)CC=CCC2(C)C(/C=C/C=C3/N(C)c4ccc5ccccc5c4C3(C)Cc3ccccc3)=[N+](Cc3ccccc3)c3ccc4ccccc4c32)C(C)(Cc2ccccc2)c2c1ccc1ccccc21` (centres unmarked) [Compound No. 29], the “Solubility (in TFP)” value is listed as 5.3%.
As for `CCCN1/C(=C/C=C/C2=[N+](CCC(C)C)c3ccc4ccccc4c3C2(C)CC=CCC2(C)C(/C=C/C=C3/N(CCC)c4ccccc4C3(C)C)=[N+](CCC(C)C)c3ccc4ccccc4c32)C(C)(C)c2ccccc21` (centres unmarked) [Compound No. 34], the “Solubility (in TFP)” value was found to be 4.17%.
